In series [1] the target is T1, estrogen receptor (Sus scrofa, UniProt Q29040).
T1 sequence (Q29040 1-595): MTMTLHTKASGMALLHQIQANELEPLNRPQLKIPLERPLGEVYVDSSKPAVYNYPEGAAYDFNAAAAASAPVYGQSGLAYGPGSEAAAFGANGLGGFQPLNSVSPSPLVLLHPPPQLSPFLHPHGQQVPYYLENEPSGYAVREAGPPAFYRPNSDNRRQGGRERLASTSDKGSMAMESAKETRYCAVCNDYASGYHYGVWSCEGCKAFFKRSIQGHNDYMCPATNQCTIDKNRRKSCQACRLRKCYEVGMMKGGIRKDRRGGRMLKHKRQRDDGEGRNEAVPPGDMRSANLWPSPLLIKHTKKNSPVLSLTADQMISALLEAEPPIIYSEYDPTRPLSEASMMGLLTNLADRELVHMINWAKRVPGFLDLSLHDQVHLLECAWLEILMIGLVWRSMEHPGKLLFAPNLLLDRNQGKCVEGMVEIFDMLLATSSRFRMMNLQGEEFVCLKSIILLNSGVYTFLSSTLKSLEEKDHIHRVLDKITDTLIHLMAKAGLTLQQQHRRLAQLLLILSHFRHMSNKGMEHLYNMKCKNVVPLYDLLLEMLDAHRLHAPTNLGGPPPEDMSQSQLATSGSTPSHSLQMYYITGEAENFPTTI
The note with it: for Ki: [^3H]estradiol 5 nM, 4°C.
Description: (§1) Briefly, uteri (90 gm) were obtained from immature domestic swine (15kg) was homogenized in Tris buffer (10 mM, pH 7.4) (1 uterus/180 ml), which contained EDTA (1.5 mM) and sodium Azide (3 mM). The homogenate was centrifuged at 100,000 g for 1 hour at 4 ° C. Uteri cytosol (contains 2% of protein from corresponding uterus tissue) were then pretreated with dextran-coated charcoal as described.^10 Protein concentrations were determined according to the method of Lowry et al.^12

Series [2] has as its target T1, estrogen receptor. Nature of the series: biochemical.
Description: as §1
Series [3] relates to MCF7. Nature of the series: Inhibition of MCF7 breast tumor cell growth in vitro (72 hour exposure, MTT tetrazolium dye assay). It counts as cell-based, human. On the procedure:
The MCF7 cell line is a human tumor cell line. This cell line was cultured in MEM( (Eagles) media in a 5% C0^2 atmosphere with 10% fetal calf serum that had been washed twice with dextran coated charcoal to reduce endogenous estrogen levels. The media was supplemented with 1 mM sodium pyruvate and 100 µm non-essential amino acids. The cell line was screened routinely for myoplasma contamination using the GenProbe kit (Fisher). Cells were trypsinized and plated at a density of 5,000 cells/well in 96 well microtiter plates and allowed to attach and recover for 24 hours.
The media was removed by aspiration and replaced with filter sterilized drug (concentration from 10-^4 M to […]) in media. The cells were incubated for 72 hours and then stained using the MTT tetrazolium dye assay of Mosmann^36 except that after the media was removed, the blue formazan product was solubilized in 50 µl/well DMSO.

A short description of series [4]: In vivo biodistribution of N,N-diethyl-[^18F]fluoromethyltamoxifen in rats. The note with it: rat, iv; for tissue uptake at 2 h / tissue uptake at 4 h: primed with 60 μg of estradiol for 3 days. The protocol: Four groups of rats (150-200 gm, N = 4/group) were anesthetized with ketamine (10-15 mg/rat). […]. Tissue uptake of ^18F-tracer was determined at 2 and 4 hours (h). To ascertain whether the ^18 F-tracer uptake was mediated by a receptor-process, one group of rats was given ^18F-tracer without priming with estradiol; and another group of rats was given unlabeled estradiol (30 µg/rat) together with ^18 F-tracer. […]

The mark [5] stands for this setting: IC50(uM), concentration required to decrease bound [^3H]estradiol by 50%, average of three experiments.
The mark [6] stands for this setting: IC-50 estrogen receptor binding, [^3H]estradiol (5 nM).
The mark [7] stands for this setting: Table 6, relative potency, IC50 ratio between tamoxifen and competitor, tamoxifen = 100.
The mark [8] stands for this setting: IC50(M), [^3H]estradiol 5 nM, 4°C.
Where [9] appears, read: Homo sapiens, MCF7, 72 h, Table 6, 72 hour exposure, average of three experiments, read-out: IC50 Dose.
[10] abbreviates: Homo sapiens, MCF7, text values b172, read-out: IC50 MCF7 cell inhibition (converted).
The mark [11] stands for this setting: comparative compounds IV and VII, average of three experiments, read-out: IC50 Dose.
Setting [12] is: comparative compounds IV and VII, relative potency, tamoxifen = 100.
Where [13] appears, read: IC50 ratio between tamoxifen and competitor, tamoxifen printed as 1.
[14] abbreviates: Homo sapiens, MCF7, 72 h, read-out: IC50 Dose (µM).
[15] abbreviates: 2h(BLOCK): coinjected with estradiol (30μg).
Setting [16] is: 2h, without prime with estradiol (control).

Read-outs that look alike come from different tables or passages of the source.

Results on 16 compounds are retold here after EP0551434B1 (BOARD OF REGENTS THE UNIVERSITY OF TEXAS SYSTEM, priority 1990, dated 1992).

In general, IC50 refers to the concentration that inhibits the measured activity by half. Take `CCN(CC)CCOc1ccc(/C(=C(\CCCCl)c2ccccc2)c2ccccc2)cc1` [Compound XII (Cis), 1[4-(2-Diethylaminoethoxy)phenyl]-1,2-diphenyl-5-chloro-1-pentene]: the RBA in series [1] came to 7.5. In addition, the IC50 in series [2] (setting [5]) and in series [2] (setting [6]) was 4 µM throughout. In addition, in series [3] (setting [7]), the RP came out at 335.

For `CCN(CC)CCOc1ccc(/C(=C(/CCCCl)c2ccccc2)c2ccccc2)cc1` [Compound XII (trans), 1[4-(2-Diethylaminoethoxy)phenyl]-1,2-diphenyl-5-chloro-1-pentene], the RBA in series [1] came to 75. In addition, the half-maximal inhibitory concentration (IC50) in series [3] (Table 6, 72 hour exposure, average of three experiments, read-out: IC50 Dose) turned out to be 10 µM. The RP in series [3] (setting [7]) was 146.

Usually Ki stands for the equilibrium dissociation constant of an inhibitor or competing ligand from its target. High values mean weaker binding, low ones tighter binding. Regarding `CCN(CC)CCOc1ccc(/C(=C(/CCCI)c2ccccc2)c2ccccc2)cc1` [X (trans)], the RBA in series [1] stood at 15. Moreover, the “RBA*” value in series [1] is 1,500. Moreover, the “fold higher affinity for the estrogen receptor than native tamoxifen” value in series [1] turned out to be 15 fold. Further, the Ki in series [1] and in series [2] was 1 µM throughout. For the same compound, the IC50 in series [2] (setting [8]) is 2 µM; in series [2] (setting [5]), 2 µM; in series [2] (setting [6]), 2 µM; in series [3] (setting [9]) it was 6.3 µM; in series [3] (setting [10]), 6.3 µM. Also, the RP in series [3] (setting [7]) came to 175.

`CCN(CC)CCOc1ccc(/C(=C(\CCCI)c2ccccc2)c2ccccc2)cc1` [X (cis), N,N-diethyl-iodomethyltamoxifen]: the RBA in series [1] was 10. The “RBA*” value in series [1] is 1,000. For the same compound, in series [1], the “fold higher affinity for the estrogen receptor than native tamoxifen” value is given as 10 fold. Further, the Ki in series [1] and in series [2] was 1.5 µM throughout. The IC50 was 3 µM in series [2] (setting [8]); 3 µM in series [2] (setting [5]); 3 µM in series [2] (setting [6]); 2.36 µM in series [3] (setting [9]); 2.4 µM in series [3] (setting [10]). The RP in series [3] (setting [7]) worked out at 466.

For `CCN(CC)CCOc1ccc(C(=C(CCF)c2ccccc2)c2ccccc2)cc1` (single isomer, unassigned) [Compound IV (Trans), N,N-diethyl-fluorotamoxifen], the RP in series [3] came to 82.

On to Fluorotamoxifen [Compound VII (Trans)], for which the IC50 in series [3] (setting [11]) is 11.8 µM. Also, the RP in series [3] (setting [12]) is recorded as 93.

On to `CCN(CC)CCOc1ccc(/C(=C(/CCCO)c2ccccc2)c2ccccc2)cc1` [III (trans), N,N-diethyl-hydroxymethyltamoxifen], for which the RBA in series [1] was 4. Moreover, the “RBA*” value in series [1] is recorded as 400. Further, in series [2], the Ki came out at 3.5 µM. Besides, the IC50 was 7 µM in series [2] (setting [8]), 7 µM in series [2] (setting [5]), 7 µM in series [2] (setting [6]) and 22 µM in series [3] (setting [9]). For the same compound, the RP in series [3] (setting [7]) turned out to be 50.

With `CCN(CC)CCOc1ccc(/C(=C(\CCCBr)c2ccccc2)c2ccccc2)cc1` [Compound XI (Cis), 1-[4-(2-Diethylaminoethoxy)phenyl]-1,2-diphenyl-5-bromo-1-entene], the RBA in series [1] (setting [13]) was 37.5. Moreover, the IC50 in series [2] (setting [5]) worked out at 0.8 µM; in series [2] (setting [6]), 0.8 µM; in series [3] (setting [14]), 0.62 µM. Also, the RP in series [3] (setting [7]) worked out at 2355.

Turning to `CCN(CC)CCOc1ccc(C(=C(CCCBr)c2ccccc2)c2ccccc2)cc1` [Compound XI, 1-[4-(2-Diethylaminoethoxy)phenyl]-1,2-diphenyl-5-bromo-1-entene], the IC50 in series [2] (IC-50, text value, Example 5) is 0.2 µM; in series [2] (setting [6]) it was 0.2 µM.

Turning to Fluorotamoxifen [Compound VII (Cis)], the IC50 in series [3] (setting [11]) is 4.5 µM. The compound further registered an RP in series [3] (setting [12]) of 224.

As for `CCN(CC)CCOc1ccc(C(=C(CCC[18F])c2ccccc2)c2ccccc2)cc1` [N,N-DIETHYL-[^18F]FLUOROMETHYLTAMOXIFEN], the tissue uptake at 2 h was 0.033 ± 0.0059 %ID/g in series [4] (blood, 2h, read-out: BLOOD); 0.653 ± 0.135 %ID/g in series [4] (bone, 2h, read-out: BONE); 0.917 ± 0.306 %ID/g in series [4] (intestine, 2h, read-out: INTESTINE); 0.742 ± 0.0756 %ID/g in series [4] (kidney, 2h, read-out: KIDNEY); 4.54 ± 0.505 %ID/g in series [4] (liver, 2h, read-out: LIVER); 0.151 ± 0.0203 %ID/g in series [4] (muscle, 2h, read-out: MUSCLE). Moreover, the tissue uptake at 2 h in series [4] (uterus, 2h, read-out: UTERUS) was 0.426 ± 0.0177 %ID/g. The tissue uptake at 4 h was 0.045 ± 0.0003 %ID/g in series [4] (blood, read-out: BLOOD); 0.802 ± 0.0556 %ID/g in series [4] (bone, read-out: BONE); 1.1 ± 0.599 %ID/g in series [4] (intestine, read-out: INTESTINE); 0.796 ± 0.03 %ID/g in series [4] (kidney, read-out: KIDNEY); 4.21 ± 0.44 %ID/g in series [4] (liver, read-out: LIVER); 0.183 ± 0.0015 %ID/g in series [4] (muscle, read-out: MUSCLE). Besides, in series [4] (uterus, read-out: UTERUS), the tissue uptake at 4 h came out at 0.4 ± 0.0312 %ID/g. For the same compound, the BLOOD in series [4] (setting [15]) is given as 0.048±0.0066 % OF INJECTED DOSE/GRAM OF TISSUE WEIGHT; in series [4] (setting [16]), 0.033±0.0109 % OF INJECTED DOSE/GRAM OF TISSUE WEIGHT. The BONE was 0.576±0.1268 % OF INJECTED DOSE/GRAM OF TISSUE WEIGHT in series [4] (setting [15]) and 0.644±0.0656 % OF INJECTED DOSE/GRAM OF TISSUE WEIGHT in series [4] (setting [16]). Besides, the INTESTINE in series [4] (setting [15]) is 0.742±0.458 % OF INJECTED DOSE/GRAM OF TISSUE WEIGHT; in series [4] (setting [16]) it was 0.504±0.1784 % OF INJECTED DOSE/GRAM OF TISSUE WEIGHT. Further, the results for the KIDNEY in series [4] (setting [15]) and in series [4] (setting [16]) were 0.742±0.1451 % OF INJECTED DOSE/GRAM OF TISSUE WEIGHT and 0.530±0.0752 % OF INJECTED DOSE/GRAM OF TISSUE WEIGHT, respectively. In addition, the LIVER in series [4] (setting [15]) is 4.451±1.1559 % OF INJECTED DOSE/GRAM OF TISSUE WEIGHT; in series [4] (setting [16]) it was 3.849±0.4069 % OF INJECTED DOSE/GRAM OF TISSUE WEIGHT. Further, the MUSCLE in series [4] (setting [15]) is on record as 0.145±0.0446 % OF INJECTED DOSE/GRAM OF TISSUE WEIGHT; in series [4] (setting [16]), 0.109±0.0218 % OF INJECTED DOSE/GRAM OF TISSUE WEIGHT. Further, the UTERUS in series [4] (setting [15]) is on record as 0.297±0.0356 % OF INJECTED DOSE/GRAM OF TISSUE WEIGHT; in series [4] (setting [16]) it was 0.248±0.0535 % OF INJECTED DOSE/GRAM OF TISSUE WEIGHT.

As for `CCN(CC)CCOc1ccc(/C(=C(/CCCBr)c2ccccc2)c2ccccc2)cc1` [Compound XI (trans), 1-[4-(2-Diethylaminoethoxy)phenyl]-1,2-diphenyl-5-bromo-1-entene], in series [1] (setting [13]), the RBA worked out at 150. Further, the IC50 turned out to be 0.2 µM in series [2] (setting [5]), 0.2 µM in series [2] (setting [6]) and 4.9 µM in series [3] (setting [14]). Also, the RP in series [3] (setting [7]) came to 298.

On to `CCN(CC)CCOc1ccc(/C(=C(/CCCCl)c2ccccc2)c2ccccc2)cc1` [Compound XII, 1[4-(2-Diethylaminoethoxy)phenyl]-1,2-diphenyl-5-chloro-1-pentene], for which the IC50 in series [2] (setting [6]) turned out to be 0.4 µM.

`CCN(CC)CCOc1ccc(/C(=C(\CCCF)c2ccccc2)c2ccccc2)cc1` [VI (Cis), N,N-diethyl-fluoromethyltamoxifen]: the IC50 in series [3] (setting [9]) and in series [3] (setting [10]) was 4.5 µM throughout. The RP in series [3] (setting [7]) was 244.

For the compound `CCN(CC)CCOc1ccc(/C(=C(/CCCF)c2ccccc2)c2ccccc2)cc1` [Compound VI (trans)], the IC50 in series [3] (setting [9]) and in series [3] (setting [10]) was 11.8 µM each time. Also, the RP in series [3] (setting [7]) is given as 93.

In the case of `CCN(CC)CCOc1ccc(C(=C(CCF)c2ccccc2)c2ccccc2)cc1` (single isomer, unassigned) [Compound IV (Cis), N,N-diethyl-fluorotamoxifen], the RP in series [3] turned out to be 268.
